Assay results taken from patent publication US20040161419A1, “Placental stem cells and uses thereof” (priority 2002, published 2004).

Columns and labels:
placental stem cells [1] = experiment: Differentiation into cardiomyocytes (RT-PCR); assay type: cell-based, human; settings: 1 mM, day 14 versus day 0, RT-PCR
Procedure: Placental stem cells (PSCs) were cultured in the presence of L-Ascorbic acid 2-phosphate (1 mM) for 14 days. Total RNA was extracted on day 0 and day 14 and used for RT-PCR analysis. Cardiomyocyte specific genes primers were designed specifically for cardiac transcription factor GATA-4, atrial myosin light chain type 2 (MLC-2A), ventricular myosin light chain type 2 (MLC-2V), human atrial natriuretic peptide (hANP), and cardiac troponin T (cTnT). The PCR reaction conditions were 45 cycles/57° C. annealing temperature. The PCR products were size fractioned by 2.5% agarose gel electrophoresis.

placental stem cells [2] = experiment: Differentiation into neural cells; assay type: cell-based, human
Procedure: […] Immunohistochemical analysis of the expression of the different genes was conducted with antibodies specific to the human proteins.

CYP1A1/2 = experiment: EROD assay (ethoxyresorufin-o-deethylase); assay type: cell-based; settings: prior exposure 50 uM; human hepatocytes and hepatocytes derived from PSCs
Procedure: Human hepatocytes were cultured using the conditions of Strom et al. Methods in Enzymology 272:388-401 (1996).
An EROD assay which measures the conversion of ethoxy-resorufin to hydroxyresorufin was used to detect expression of CYP1A1 or CYP1A2 in human hepatocytes and hepatocytes derived from placental stem cells (Kelley et al. J. Biomolecular Screening 5:249-253 (2000). CYP1A activity in these cells was induced by exposing the hepatocytes to beta-naphthoflavone (50 uM).

placental stem cells [3] = experiment: Differentiation into pancreatic cells (RT-PCR); assay type: cell-based, human; settings: on Matrigel, 14 days
Procedure: Placental stem cells were maintained in standard growth media for 7 days and then trypsinized and seeded on cultures previously coated with matrigel (MG), a commercially available form of basement membrane proteins. Cultures were coated with 20% (v/v; matrigel to media) or 100% matrigel with essentially identical results. […] After 10-14 days the cells were lysed and RNA was isolated, and reverse transcriptase-PCR analysis was conducted with PCR primers specific for Pax 6, PDX-1 Nkx2.2, insulin, glucagon and an internal control, beta-actin.

placental stem cells [4] = test system: placental stem cells
Procedure: The cells were cultured for either 7-10 days or until the cultures grew to confluence. The cells were trypsinized and reseeded in 6 well plates. The cells were subjected to different culture conditions, having varying growth factors supplementing the DMEM or MEM based medium. […] Placental stem cells were cultured for an additional 14 days. At the end of 14 days, the cells were evaluated for the expression of human albumin, CYP3A4, A1AT, or C/EBP-alpha.

Question: `O=C1O[C@H]([C@@H](O)CO)C(O)=C1OP(=O)(O)O` [L-Ascorbic acid 2-phosphate] was tested. Which “expression of MLC-2A and MLC-2V genes” value (placental stem cells [1]) did it give?
Answer: significantly up-regulated

Question: Which “expression of GFAP, beta-tubulin III and CNP” value (placental stem cells [2]; immunofluorescence, FIG. 9A) does the source give for `CC1=C(/C=C/C(C)=C/C=C/C(C)=C/C(=O)O)C(C)(C)CCC1` [all trans retinoic acid, all-trans retinoic acid] here?
Answer: express

Question: And the “expression of nestin and glutamic acid decarboxylase (GAD)” value (placental stem cells [2]; over 7 days of culture, FIG. 9B)?
Answer: increase

Question: For `O=c1cc(-c2ccccc2)oc2ccc3ccccc3c12` [beta-naphthoflavone (BNF), beta-naphthoflavone], which “effect on EROD activity” value (CYP1A1/2) is on record?
Answer: induced

Question: `NC(=O)c1cccnc1` [nicotinamide] was tested. Which “expression of pancreatic markers (insulin, glucagon, PDX-1, Pax6, Nkx2.2)” value (placental stem cells [3]) did it give?
Answer: express insulin and glucagon

Question: Which “liver specific gene expression (albumin, CYP3A4, A1AT, C/EBP-alpha)” value (placental stem cells [4]) does the source give for “FGF 2: fibroblast growth factor 2, media supplement” here?
Answer: did not enhance liver specific gene expression

Question: How did the “liver specific gene expression (albumin, CYP3A4, A1AT, C/EBP-alpha)” value (placental stem cells [4]) turn out when “hepatocyte growth factor (HGF): hepatocyte growth factor, media supplement” was run?
Answer: did not enhance liver specific gene expression
